PubChem BioAssay AID248 (DTP/NCI, 2004)
Values joined by “and” are separate entries in the source; they are usually repeats but may differ in a detail not shown here. Equal values may be shown once. Inconclusive results and toxic doses are left out. Rule as the data show it: active = T/C of 150% or more; inactive = T/C below 125%.

Tested on: L1210 leukemia ip in BDF1 mice, survival T/C
Test: NCI In Vivo Anticancer Drug Screen. Data for tumor model L1210 Leukemia (intraperitoneal) in B6D2F1 (BDF1) mice
Details: endpoint: mean survival time, higher = longer survival
In short: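 Survival endpoint. Drug-treated group vs vehicle group, expressed as T divided by C. Tumor passaged by transplantation.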

[1] = dose: 100.0 mg/kg/injection, schedule: Q04DX003 (ip), vehicle: saline
[2] = dose: 200.0 mg/kg/injection, schedule: Q04DX003 (ip), vehicle: saline
[3] = dose: 100.0 mg/kg/injection, schedule: Q01DX009 (ip), vehicle: saline with Tween-80
[4] = dose: 200.0 mg/kg/injection, schedule: Q01DX009 (ip), vehicle: saline with Tween-80
[5] = dose: 100.0 mg/kg/injection, schedule: Q01DX009 (ip), vehicle: Klucel (hydroxypropylcellulose) (HPC)
[6] = dose: 100.0 mg/kg/injection, schedule: Q04DX003 (ip), vehicle: Klucel (hydroxypropylcellulose) (HPC)
[7] = dose: 200.0 mg/kg/injection, schedule: Q01DX009 (ip), vehicle: Klucel (hydroxypropylcellulose) (HPC)
[8] = dose: 200.0 mg/kg/injection, schedule: Q04DX003 (ip), vehicle: Klucel (hydroxypropylcellulose) (HPC)
[9] = dose: 400.0 mg/kg/injection, schedule: Q04DX003 (ip), vehicle: Klucel (hydroxypropylcellulose) (HPC)
[10] = dose: 100.0 mg/kg/injection, schedule: Q01DX001 (ip), vehicle: carboxymethylcellulose (CMC)
[11] = dose: 200.0 mg/kg/injection, schedule: Q01DX001 (ip), vehicle: carboxymethylcellulose (CMC)
[12] = dose: 400.0 mg/kg/injection, schedule: Q01DX001 (ip), vehicle: carboxymethylcellulose (CMC)
[13] = dose: 400.0 mg/kg/injection, schedule: Q01DX009 (ip), vehicle: Klucel (hydroxypropylcellulose) (HPC)

Measured: T/C

Cc1cc(=O)c2cc(N)ccc2[nH]1
inactive: dose: 100.0 mg/kg/injection, schedule: Q01DX009 (ip), vehicle: water 98 % of control | dose: 100.0 mg/kg/injection, schedule: Q04DX003 (ip), vehicle: water 107 % of control | dose: 200.0 mg/kg/injection, schedule: Q01DX009 (ip), vehicle: water 98 % of control | dose: 200.0 mg/kg/injection, schedule: Q04DX003 (ip), vehicle: water 113 % of control | dose: 400.0 mg/kg/injection, schedule: Q01DX009 (ip), vehicle: water 94 % of control | dose: 400.0 mg/kg/injection, schedule: Q04DX003 (ip), vehicle: water 116 % of control

CC(C)=C(Br)c1c(C)cc(C)c(Nc2ccc([N+](=O)[O-])cc2)c1C
inactive: [1] 94 % of control | [2] 91 % of control | dose: 400.0 mg/kg/injection, schedule: Q04DX003 (ip), vehicle: saline 91 % of control

CCC(C)C(C)NC(C)=O (stereo not drawn)
inactive: [1] 101 % of control | [2] 113 % of control

Cc1ccc(/C([O-])=C(\C(=S)Nc2cccc(C)c2)[n+]2ccccc2)cc1
inactive: [3] 103 % of control and 112 % of control | dose: 100.0 mg/kg/injection, schedule: Q04DX002 (ip), vehicle: saline with Tween-80 93 % of control and 95 % of control | [4] 93 % of control and 100 % of control | dose: 200.0 mg/kg/injection, schedule: Q04DX002 (ip), vehicle: saline with Tween-80 93 % of control and 115 % of control | dose: 400.0 mg/kg/injection, schedule: Q01DX009 (ip), vehicle: saline with Tween-80 95 % of control and 101 % of control | dose: 400.0 mg/kg/injection, schedule: Q04DX002 (ip), vehicle: saline with Tween-80 98 % of control and 107 % of control

COc1cc2ccc(C(C)NCC#N)cc2cc1OC (stereo not drawn)
inactive: [5] 97 % of control | [6] 88 % of control | [7] 101 % of control | [8] 93 % of control | [9] 106 % of control

NSc1nc2ccccc2s1
inactive: [3] 95 % of control | dose: 100.0 mg/kg/injection, schedule: Q04DX003 (ip), vehicle: saline sonified 105 % of control | [4] 93 % of control | dose: 200.0 mg/kg/injection, schedule: Q04DX003 (ip), vehicle: saline sonified 96 % of control | dose: 400.0 mg/kg/injection, schedule: Q04DX003 (ip), vehicle: saline sonified 107 % of control

CN(N)P(=O)(c1ccccc1)N(C)N
inactive: dose: 25.0 mg/kg/injection, schedule: Q01DX009 (ip), vehicle: saline 103 % of control | dose: 25.0 mg/kg/injection, schedule: Q04DX003 (ip), vehicle: saline 101 % of control | dose: 50.0 mg/kg/injection, schedule: Q01DX009 (ip), vehicle: saline 100 % of control | dose: 50.0 mg/kg/injection, schedule: Q04DX003 (ip), vehicle: saline 98 % of control | [1] 104 % of control and 105 % of control

COc1ccc(OC(C)=O)c(/C=C\C=O)c1
inactive: [10] 94 % of control | [11] 100 % of control | [12] 100 % of control

COC(=O)C1=C(N)CCc2ccccc21
inactive: dose: 100.0 mg/kg/injection, schedule: Q04DX003 (ip), vehicle: saline with Tween-80 97 % of control | dose: 200.0 mg/kg/injection, schedule: Q04DX003 (ip), vehicle: saline with Tween-80 103 % of control | dose: 400.0 mg/kg/injection, schedule: Q04DX003 (ip), vehicle: saline with Tween-80 101 % of control

NC(=O)C(Cc1ccc(O)cc1)NC(=O)c1ccccc1 (stereo not drawn)
inactive: [5] 95 % of control | [6] 105 % of control | [7] 90 % of control | [8] 102 % of control | [13] 93 % of control | [9] 94 % of control

CCOC(=O)CNc1ccc(Br)cc1
inactive: dose: 100.0 mg/kg/injection, schedule: Q04DX002 (ip), vehicle: Klucel (hydroxypropylcellulose) (HPC) 108 % of control | dose: 200.0 mg/kg/injection, schedule: Q04DX002 (ip), vehicle: Klucel (hydroxypropylcellulose) (HPC) 108 % of control

CCOC(=O)/C=C\n1c(=O)cc(C)c2cc3c(C)cc(=O)n(C)c3cc21
inactive: dose: 50.0 mg/kg/injection, schedule: Q01DX001 (ip), vehicle: Klucel (hydroxypropylcellulose) (HPC) 99 % of control | dose: 100.0 mg/kg/injection, schedule: Q01DX001 (ip), vehicle: Klucel (hydroxypropylcellulose) (HPC) 87 % of control | dose: 200.0 mg/kg/injection, schedule: Q01DX001 (ip), vehicle: Klucel (hydroxypropylcellulose) (HPC) 92 % of control

CCn1c(C)[n+](CCCOS(=O)(=O)[O-])c2ccccc21
inactive: [1] 97 % of control | [2] 106 % of control

c1ccc(-c2nnn(CCn3nnc(-c4ccccc4)n3)n2)cc1
inactive: [6] 102 % of control | [8] 104 % of control | [9] 98 % of control

Cn1c(=O)c2[nH]c(C3CCC3)nc2n(C)c1=O
inactive: dose: 50.0 mg/kg/injection, schedule: Q01DX001 (ip), vehicle: saline 110 % of control | dose: 100.0 mg/kg/injection, schedule: Q01DX001 (ip), vehicle: saline 113 % of control | dose: 200.0 mg/kg/injection, schedule: Q01DX001 (ip), vehicle: saline 101 % of control | dose: 400.0 mg/kg/injection, schedule: Q01DX001 (ip), vehicle: saline 107 % of control

CCCCOP(=O)(NC12CC3CC(CC(C3)C1)C2)OCCCC
inactive: [5] 97 % of control | [6] 100 % of control | [7] 97 % of control | [8] 92 % of control | [13] 100 % of control | [9] 96 % of control

N#CC(C#N)=CNc1ccc(S(N)(=O)=O)cc1
inactive: dose: 75.0 mg/kg/injection, schedule: Q01DX001 (ip), vehicle: saline 101 % of control | dose: 150.0 mg/kg/injection, schedule: Q01DX001 (ip), vehicle: saline 95 % of control | dose: 300.0 mg/kg/injection, schedule: Q01DX001 (ip), vehicle: saline 96 % of control

O=C1/C(=C/c2cccc3ccccc23)CCc2ccccc21
inactive: [10] 97 % of control | [11] 95 % of control | [12] 97 % of control

O=C(Nc1ccccc1F)Nc1ccc(Cl)cc1Cl
inactive: dose: 100.0 mg/kg/injection, schedule: Q01DX009 (ip), vehicle: saline 100 % of control | dose: 200.0 mg/kg/injection, schedule: Q01DX009 (ip), vehicle: saline 100 % of control | dose: 400.0 mg/kg/injection, schedule: Q01DX009 (ip), vehicle: saline 98 % of control

CCCCNC(C)(C)C(SC(C)=O)c1ccc(Cl)cc1 (stereo not drawn)
inactive: [3] 89 % of control

O=C(Nc1ccccc1C(F)(F)F)OCCOc1ccc(Cl)cc1
inactive: [5] 98 % of control | [7] 91 % of control | [13] 87 % of control

COc1ccc(/C=N/N=C(N)N)cc1
inactive: dose: 15.0 mg/kg/injection, schedule: Q01DX Z (ip), vehicle: saline 103 % of control | dose: 30.0 mg/kg/injection, schedule: Q01DX Z (ip), vehicle: saline 100 % of control | dose: 30.0 mg/kg/injection, schedule: Q01DX Z (oral), vehicle: other 93 % of control | dose: 60.0 mg/kg/injection, schedule: Q01DX Z (ip), vehicle: saline 95 % of control | dose: 60.0 mg/kg/injection, schedule: Q01DX Z (oral), vehicle: other 100 % of control | dose: 120.0 mg/kg/injection, schedule: Q01DX Z (oral), vehicle: other 98 % of control
